Results from patent US20160108381A1, “DNA POLYMERASES AND MUTANTS THEREOF” (LIFE TECHNOLOGIES CORPORATION, priority 2001, published 2016).

Key:
Test in all cases: Steady-state kinetics, DNA- and RNA-dependent polymerase activity
Type in all cases: biochemical
[1] = biological target: T1, Thermotoga neapolitana (Tne) DNA polymerase, mutated to eliminate 3′ to 5′ and 5′ to 3′ exonuclease activity (Thermotoga neapolitana, UniProt B9K7T2)
T1 construct: mutated to eliminate 3'-5' and 5'-3' exonuclease activity as in US 6,306,588 (recalled, unsure: D137A and D323A)
Experimental: (§1) Thermotoga neapolitana (Tne) DNA polymerase mutated to eliminate 3′ to 5′ and 5′ to 3′ exonuclease activity was cloned, engineered and purified as described in U.S. Pat. No. 6,306,588. SuperScript II reverse transcriptase (SS II RT) was from Invitrogen Corporation, Carlsbad, Calif.
(§2) Steady-state kinetic measurements.
(§3) The catalytic rate constant kcat and the Michaelis constant KM were determined for both the DNA-dependent and RNA-dependent polymerase activities for the polypeptides of the invention and these parameters were compared to those of Tne DNA polymerase enzyme and […]™ II reverse transcriptase. […]

[2] = biological target: SuperScript II reverse transcriptase (SSII, SS II RT), a modified M-MLV reverse transcriptase (Moloney murine leukemia virus isolate Shinnick, UniProt P03355)
Experimental: as §1, §2, §3

[3] = biological target: T2, Caldibacillus cellulovorans CompA.2 (CA2) DNA polymerase, SEQ ID NO:16 ([Caldibacillus] cellulovorans, UniProt Q6X9S0)
T2 sequence (Q6X9S0 with tags, fused parts or gaps): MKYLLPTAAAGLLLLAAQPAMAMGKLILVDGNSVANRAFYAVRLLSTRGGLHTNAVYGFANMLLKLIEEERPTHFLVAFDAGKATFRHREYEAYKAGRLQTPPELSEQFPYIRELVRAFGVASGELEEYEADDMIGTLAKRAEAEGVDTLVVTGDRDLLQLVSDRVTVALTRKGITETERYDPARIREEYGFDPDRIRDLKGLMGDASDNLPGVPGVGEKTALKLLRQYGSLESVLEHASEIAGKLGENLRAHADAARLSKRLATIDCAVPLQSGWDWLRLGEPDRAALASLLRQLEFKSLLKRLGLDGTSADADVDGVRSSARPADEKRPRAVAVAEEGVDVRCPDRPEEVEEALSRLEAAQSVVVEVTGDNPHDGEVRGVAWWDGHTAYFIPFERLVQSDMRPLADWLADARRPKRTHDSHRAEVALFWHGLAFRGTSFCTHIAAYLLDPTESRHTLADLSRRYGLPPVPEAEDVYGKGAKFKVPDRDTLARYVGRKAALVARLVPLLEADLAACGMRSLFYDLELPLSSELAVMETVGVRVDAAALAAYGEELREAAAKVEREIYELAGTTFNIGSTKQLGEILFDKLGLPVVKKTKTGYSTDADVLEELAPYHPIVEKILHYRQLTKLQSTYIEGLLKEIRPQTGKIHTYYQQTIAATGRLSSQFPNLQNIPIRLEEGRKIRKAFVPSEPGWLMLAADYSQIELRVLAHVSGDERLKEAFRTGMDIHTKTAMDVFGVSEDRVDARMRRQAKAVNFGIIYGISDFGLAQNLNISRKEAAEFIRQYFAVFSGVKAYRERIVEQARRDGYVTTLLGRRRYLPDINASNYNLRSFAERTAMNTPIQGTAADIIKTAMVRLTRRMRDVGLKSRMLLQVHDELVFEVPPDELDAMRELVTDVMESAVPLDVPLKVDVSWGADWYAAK
Experimental: Purification of CA2, B.EA1, Rt41A, Dth, Tok13B, Tok7B, and Rt69B DNA polymerase. E. coli cells (BL21SI, Invitrogen Corporation, Carlsbad, Calif.) bearing the plasmid pET26B with the gene for CA2, B.EA1, Rt41A, or Dth DNA polymerase were grown in 2.8-1 Fembach flasks in LB broth containing no salt and 50 μg/ml kanamycin at 37° C. After the culture reached an A590 of 1.2, expression of DNA polymerase was induced with 0.3 M NaCl for 3 hr. Cells were harvested by centrifugation and stored at −70° C. E. coli cells (BL21AI) bearing the plasmid pET14B with the gene for Tok13B, Tok7B, or RT69B DNA polymerase were grown in 2.8-1 Fembach flasks in LB broth containing 50 μg/ml ampicillin at 37° C. After the culture reached an A590 of 1.0, expression of DNA polymerase was induced by the addition of 0.2% arabinose for 3 hr. Cells were harvested by centrifugation and stored at −70° C.
as §2, §3

[4] = Table 34, RNA template, 2 mM MgCl2, 45 °C per footnote
[5] = read-out: Km RNA (dTTP), Table 34, RNA template, 2 mM MgCl2, 45 °C per footnote

T1 sequence (B9K7T2 entry or part of it, stated change not applied): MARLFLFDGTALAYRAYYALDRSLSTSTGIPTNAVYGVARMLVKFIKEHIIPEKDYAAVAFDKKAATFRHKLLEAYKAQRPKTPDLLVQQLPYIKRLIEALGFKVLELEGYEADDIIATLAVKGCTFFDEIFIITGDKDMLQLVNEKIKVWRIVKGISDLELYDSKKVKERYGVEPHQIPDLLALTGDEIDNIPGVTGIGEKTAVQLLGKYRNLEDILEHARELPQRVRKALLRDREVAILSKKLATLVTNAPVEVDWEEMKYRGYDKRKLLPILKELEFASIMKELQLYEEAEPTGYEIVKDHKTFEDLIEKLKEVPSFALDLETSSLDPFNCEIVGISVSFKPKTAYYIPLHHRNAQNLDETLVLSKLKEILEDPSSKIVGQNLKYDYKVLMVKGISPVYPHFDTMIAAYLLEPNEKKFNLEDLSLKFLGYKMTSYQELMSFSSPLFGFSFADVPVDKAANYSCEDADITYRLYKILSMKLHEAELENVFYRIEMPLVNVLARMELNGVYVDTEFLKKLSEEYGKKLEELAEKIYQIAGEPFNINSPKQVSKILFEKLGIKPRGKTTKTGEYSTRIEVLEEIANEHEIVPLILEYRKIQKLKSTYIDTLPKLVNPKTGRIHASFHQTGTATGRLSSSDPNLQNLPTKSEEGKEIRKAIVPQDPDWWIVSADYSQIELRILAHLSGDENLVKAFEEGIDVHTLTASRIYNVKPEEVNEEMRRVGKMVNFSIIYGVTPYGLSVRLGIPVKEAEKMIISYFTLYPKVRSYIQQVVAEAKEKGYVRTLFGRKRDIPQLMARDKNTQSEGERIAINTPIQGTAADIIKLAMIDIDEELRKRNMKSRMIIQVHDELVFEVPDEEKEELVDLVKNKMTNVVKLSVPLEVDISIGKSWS

Cc1cn([C@H]2C[C@H](O)[C@@H](COP(=O)(O)OP(=O)(O)OP(=O)(O)O)O2)c(=O)[nH]c1=O [dTTP]
Kcat RNA (dTTP) [1, 4]: 0.094 s⁻¹ | kCAT Ratio (RNA/DNA) ([1]; Table 40, 72 °C, RNA-DNA with dTTP over DNA-DNA with dGTP): 0.002 | kCAT RNA-DNA ([1]; Table 40, (rA)250•(dT)40, dTTP, 72 °C, mean ± SD): 0.2 ± 0.04 s⁻¹ | Km [1, 5]: 37 µM | Kcat RNA (dTTP) [2, 4]: 14.5 s⁻¹ | kCAT Ratio (RNA/DNA) ([2]; Table 40, 37 °C, RNA-DNA with dTTP over DNA-DNA with dGTP): 2.8 | kCAT RNA-DNA ([2]; Table 40, (rA)250•(dT) template-primer, dTTP, 37 °C, mean ± SD): 45 ± 18 s⁻¹ | Km [2, 5]: 17 µM | Kcat RNA (dTTP) [3, 4]: 5 s⁻¹ | kCAT Ratio (RNA/DNA) ([3]; Table 40, dTTP, 55 °C): 0.59 | Km [3, 5]: 17 µM
